According to the NIST ThermoML archive (doi:10.1021/je400529k):

What was measured:
[1] = xn = mol fraction of the nth substance listed; settings: 101 kPa, Liquid; for viscosity: Capillary tube (Ostwald / Ubbelohde) method; for mass density: Vibrating tube method
[2] = refractive index (Na D-line) (dimensionless); xn = mol fraction of the nth substance listed; settings: 101 kPa, Liquid, Standard Abbe refractometry

CCC1CCCCC1 [ethylcyclohexane] + C1C[C@@H]2[C@H]3CC[C@H](C3)[C@@H]2C1
Settings | mass density, [1] [kg/m3] | refractive index, [2] | viscosity, [1] [mPa·s]
293.15 K, x2 = 0 | 788.02 | 1.4319 | 0.845
293.15 K, x2 = 0.0997 | 803.52 | 1.4378 | 0.941
293.15 K, x2 = 0.2006 | 818.96 | 1.4437 | 1.052
293.15 K, x2 = 0.3001 | 834.08 | 1.4494 | 1.189
293.15 K, x2 = 0.4003 | 849.15 | 1.4551 | 1.344
293.15 K, x2 = 0.5001 | 863.99 | 1.4605 | 1.514
293.15 K, x2 = 0.6011 | 878.81 | 1.4667 | 1.726
293.15 K, x2 = 0.7 | 893.21 | 1.4717 | 1.965
293.15 K, x2 = 0.8001 | 907.54 | 1.4769 | 2.251
293.15 K, x2 = 0.8996 | 921.66 | 1.4824 | 2.593
298.15 K, x2 = 0 | 784.01 | – | 0.791
298.15 K, x2 = 0.0997 | 799.47 | – | 0.878
298.15 K, x2 = 0.2006 | 814.95 | – | 0.979
298.15 K, x2 = 0.3001 | 830.07 | – | 1.104
298.15 K, x2 = 0.4003 | 845.18 | – | 1.243
298.15 K, x2 = 0.5001 | 860.01 | – | 1.396
298.15 K, x2 = 0.6011 | 874.85 | – | 1.586
298.15 K, x2 = 0.7 | 889.26 | – | 1.8
298.15 K, x2 = 0.8001 | 903.61 | – | 2.055
298.15 K, x2 = 0.8996 | 917.75 | – | 2.358
303.15 K, x2 = 0 | 779.98 | 1.4276 | 0.743
303.15 K, x2 = 0.0997 | 795.44 | 1.4334 | 0.822
303.15 K, x2 = 0.2006 | 810.94 | 1.4389 | 0.914
303.15 K, x2 = 0.3001 | 826.06 | 1.4446 | 1.028
303.15 K, x2 = 0.4003 | 841.18 | 1.4506 | 1.155
303.15 K, x2 = 0.5001 | 856.03 | 1.4559 | 1.293
303.15 K, x2 = 0.6011 | 870.9 | 1.4617 | 1.464
303.15 K, x2 = 0.7 | 885.3 | 1.4674 | 1.656
303.15 K, x2 = 0.8001 | 899.67 | 1.4724 | 1.884
303.15 K, x2 = 0.8996 | 913.82 | 1.4776 | 2.155
308.15 K, x2 = 0 | 775.93 | – | 0.7
308.15 K, x2 = 0.0997 | 791.4 | – | 0.772
308.15 K, x2 = 0.2006 | 806.91 | – | 0.856
308.15 K, x2 = 0.3001 | 822.04 | – | 0.96
308.15 K, x2 = 0.4003 | 837.18 | – | 1.076
308.15 K, x2 = 0.5001 | 852.03 | – | 1.202
308.15 K, x2 = 0.6011 | 866.92 | – | 1.356
308.15 K, x2 = 0.7 | 881.34 | – | 1.53
308.15 K, x2 = 0.8001 | 895.72 | – | 1.735
308.15 K, x2 = 0.8996 | 909.89 | – | 1.976
313.15 K, x2 = 0 | 771.86 | 1.4225 | 0.661
313.15 K, x2 = 0.0997 | 787.34 | 1.4286 | 0.727
313.15 K, x2 = 0.2006 | 802.87 | 1.4343 | 0.804
313.15 K, x2 = 0.3001 | 818 | 1.4401 | 0.9
313.15 K, x2 = 0.4003 | 833.14 | 1.4458 | 1.005
313.15 K, x2 = 0.5001 | 848.02 | 1.4514 | 1.12
313.15 K, x2 = 0.6011 | 862.92 | 1.4572 | 1.261
313.15 K, x2 = 0.7 | 877.36 | 1.4625 | 1.417
313.15 K, x2 = 0.8001 | 891.76 | 1.4679 | 1.602
313.15 K, x2 = 0.8996 | 905.95 | 1.4732 | 1.82
318.15 K, x2 = 0 | 767.78 | – | 0.626
318.15 K, x2 = 0.0997 | 783.25 | – | 0.687
318.15 K, x2 = 0.2006 | 798.78 | – | 0.758
318.15 K, x2 = 0.3001 | 813.96 | – | 0.845
318.15 K, x2 = 0.4003 | 829.08 | – | 0.942
318.15 K, x2 = 0.5001 | 843.99 | – | 1.047
318.15 K, x2 = 0.6011 | 858.88 | – | 1.175
318.15 K, x2 = 0.7 | 873.35 | – | 1.317
318.15 K, x2 = 0.8001 | 887.8 | – | 1.485
318.15 K, x2 = 0.8996 | 901.99 | – | 1.682
